Measured values reported in publication PMC1940322, “The Effect of PPARα, PPARδ, PPARγ, and PPARpan Agonists on Body Weight, Body Mass, and Serum Lipid Profiles in Diet-Induced Obese AKR/J Mice” (PPAR Research, 2007).

Legend:
[1] = tested on: diet-induced obese (DIO) AKR/J mouse; test: Food consumption in diet-induced obese AKR/J mice; assay type: in vivo; conditions: for effect on food consumption (in words): compared to vehicle-treated animals, doses and regimen as in methods
Procedure: (§1) In each experiment, BW of each animal was measured and recorded three times weekly throughout the treatment period. Body mass was obtained weekly on days 0, 7, 13, 20, and 27 of treatment. The effects of selective PPARα, δ, and γ agonists on food consumption were also assessed. Food consumption is expressed as total energy consumed (kcal) over a 24-period and as cumulative consumption over the course of the experiment.
The fat content of Research Diets D12331 chow results in pellets that crumbles making it difficult to quantify food consumption thus, Research Diets D12451 chow (4.7 kcal/g (45% kcal from fat, 35% kcal from carbohydrates and 20% kcal from protein)) was used in studies where food consumption was determined as these pellets are more solid. The animals were transitioned two weeks before compound dosing from Research Diets D12331 chow to Research Diets D12451 chow. Previous experiments (data not presented) have shown that animals fed this diet maintain the same BW and fat mass level as observed at the time of transition.
(§2) Experiment 1 was designed to study the effects of a selective PPARα agonist and PPARδ agonist as mono and combination therapy. 48 mice were sorted into 6 groups and blocked such that initial BW and body composition were not different between groups. […] Two additional groups of mice were dosed for the first 14 days with either a PPARα agonist or a PPARδ agonist alone. At day 15, the PPARδ agonist was added to the treatment regimen of animals dosed with PPARα, and the PPARα agonist was added to the dosing material of animals previously dosed with PPARδ alone. The sixth group was dosed with both the PPARα and PPARδ agonists for the entire 28-day period. BW and food consumption were assessed 3 times per week and body composition was measured weekly.
In Experiment 2, 32 mice were sorted into 4 groups (n = 8/group) and dosed with vehicle and a selective PPARγ agonist (GW7845, 3 mg/kg) for 28 days. Rimonabant (RIM, 10 or 30 mg/kg, q.d.), a CB1 receptor antagonist, was used as a positive control for weight loss. As in Experiment 1, BW and food consumption were determined 3 times per week and body composition was measured weekly.

[2] = tested on: diet-induced obese (DIO) AKR/J mouse; test: Body weight, body composition (qMR) and liver weight in diet-induced obese AKR/J mice; assay type: in vivo; conditions: for BW day 28 / effect on FM (in words) / effect on BW (in words) / Fat mass day 28 / Lean mass day 28 / Liver weight / effect on LM (in words) / increase in liver weight: 28 days; for effect on FM (in words) / effect on LM (in words): doses as in methods; for BW day 0: baseline before treatment; for effect on BW (in words): oral, GW9578 1, GW0742 30, GW7845 3, RIM 10 and 30 mg/kg, PPARpan agonists; for Fat mass day 28 / Lean mass day 28: qMR; for Liver weight: terminal collection; for increase in liver weight: PPARα agonist 1 mg/kg or PPARδ agonist 30 mg/kg alone
Procedure: The effects of monotherapy with selective PPAR agonists, combination therapy with PPARα and PPARδ, and treatment with PPARpan agonists were evaluated in four experiments in diet-induced obese (DIO) AKR/J mouse. The AKR/J mouse is a polyoma-susceptible strain originally utilized to study accelerated tumor development. This strain becomes obese and hyperinsulemic when fed a high fat diet. Age-matched, male AKR/J mice were allowed ad libitum access to Research Diet D12331 (Research Diet, Brunswick, NJ) at the Jackson Laboratories (Bar Harbor, ME) beginning at 6 weeks of age. The diet has an energy density of 5.56 kcal/g (58% kcal from fat; 26% kcal from carbohydrates, and 16% kcal from protein). The animals were allowed to become obese, achieving BW >40 grams before shipping to GlaxoSmithKline laboratory animal facility at 13 weeks of age. The mice were housed 4 per cage in standard shoebox cages and were fed the high fat diet until they reached approximately 50 grams. Age-matched lean control animals obtained from Jackson Laboratories were fed a diet of normal chow (3.04 kcal/g energy density, 12% kcal from fat, LabDiet 5001, St. Louis, MO) and used for comparison.
At the beginning of each study, the animals were weighed and body composition obtained using an EchoMRI-100 quantitative magnetic resonance (qMR, EchoMRI, Houston, TX) whole body composition analyzer. […] 16 lean control mice on standard chow were used as reference. All mice were dosed orally with vehicle (0.5% methylcellulose and 0.1% Tween 80, 10 mL/kg) for six days prior to the beginning of dosing for acclimation to handling and treatment before drug treatment was initiated.
as §1
(§3) On the final day of each experiment, a terminal blood sample (800–1000 μL) was obtained via cardiac puncture under isoflurane anesthesia. Whole blood was placed in a Terumo Capiject blood collection tube (Terumo Medical Corp., Elkton, Md, USA), allowed to sit at room temperature for 20 minutes then centrifuged to obtain serum. Serum levels of glucose, triglycerides, glycerol, nonesterified fatty acids, total cholesterol, the high-density lipoprotein cholesterol, and β-hydroxybutyrate were determined in all mice using an Olympus AU640 clinical chemistry immuno-analyzer (Olympus America Inc., Melville, NY, USA). In addition, liver weights were obtained following the terminal blood sample on the final day of the study and samples were used to determine liver fatty acid oxidation activity.
as §2
In Experiment 2, 32 mice were sorted into 4 groups (n = 8/group) and dosed with vehicle and a selective PPARγ agonist (GW7845, 3 mg/kg) for 28 days. Rimonabant (RIM, 10 or 30 mg/kg, q.d.), a CB1 receptor antagonist, was used as a positive control for weight loss. […]

[3] = tested on: diet-induced obese (DIO) AKR/J mouse; test: Serum clinical chemistry of terminal blood samples, DIO AKR/J mice; assay type: in vivo; conditions: for Cholesterol / Glucose / HDL-C / Insulin / NEFA / Triglyceride / bHBA: serum, end of treatment, 28 days; for effect on serum chemistry (in words): terminal serum after 28 days
Procedure: as §3

murine PPARγ = target: T1, murine PPARγ (Mus musculus, UniProt P37238); test: PPAR-GAL4 transient transfection transactivation assay (SPAP reporter) in CV-1 cells, PPARγ; assay type: cell-based; conditions: for EC50: CV-1 cells, GAL4 chimera, read-out: mPPARγ, murine receptor activation EC50; for mPPARγ %Max: maximal activation vs reference comparator
T1 construct: expressed in transfected cells; host or cells: CV-1 cells
T1 sequence (P37238 238-503 limits assumed): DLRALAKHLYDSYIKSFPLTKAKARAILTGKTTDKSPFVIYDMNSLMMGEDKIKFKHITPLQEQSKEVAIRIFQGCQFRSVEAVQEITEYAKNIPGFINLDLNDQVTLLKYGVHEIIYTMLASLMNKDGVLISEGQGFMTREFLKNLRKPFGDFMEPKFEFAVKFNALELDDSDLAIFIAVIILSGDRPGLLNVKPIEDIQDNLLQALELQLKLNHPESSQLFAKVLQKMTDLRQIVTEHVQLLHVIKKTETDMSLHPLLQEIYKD
Procedure: The functional potency of selected ligands was evaluated using a transient transfection assay in CV-1 cells. The ligand binding domains for murine PPARα, PPARδ, and PPARγ were fused to the yeast transcription factor GAL4 DNA binding domain as a chimera. CV-1 cells were propagated and transiently transfected with expression vectors for the respective PPAR chimera as previously described.

COC(=O)c1ccccc1N[C@@H](Cc1ccc(OCCc2nc(-c3ccccc3)oc2C)cc1)C(=O)O [GW7845]
increase in food consumption ([1]; 3 mg/kg, after only one day): 46% | food consumption elevated ([1]; 3 mg/kg, over the remaining treatment period): more than 20% | BW day 28 ([2]; 3 mg/kg oral): 54.6 ± 1.7 grams | effect on FM (in words) [2]: significant increase in FM | BW day 0 ([2]; group dosed 3 mg/kg oral): 50.9 ± 1.2 grams | effect on BW (in words) [2]: steady and consistent increase in BW | Fat mass day 28 ([2]; 3 mg/kg oral): 23.5 ± 1.3 grams | Lean mass day 28 ([2]; 3 mg/kg oral): 28.7 ± 0.6 grams | Liver weight ([2]; 3 mg/kg oral): 2.0 ± 0.1 grams | Cholesterol ([3]; 3 mg/kg oral): 106.1 ± 4.2 mg/dL | Glucose ([3]; 3 mg/kg oral): 222.3 ± 9.4 mg/dL | HDL-C ([3]; 3 mg/kg oral): 65.0 ± 0.9 mg/dL | Insulin ([3]; 3 mg/kg oral): 2.1 ± 0.4 ng/mL | NEFA ([3]; 3 mg/kg oral): 0.6 ± 0.03 mEq/L | Triglyceride ([3]; 3 mg/kg oral): 112.3 ± 5.7 mg/dL | bHBA ([3]; 3 mg/kg oral): 1.5 ± 0.1 mg/dL | effect on serum chemistry (in words) [3]: significant reduction in circulating INS, TG, and NEFA levels | EC50 (murine PPARγ): 1.2 nM | mPPARγ %Max (murine PPARγ): 247% | selectivity for PPARγ over the other murine PPAR subtypes (murine PPARγ; murine receptors): > 1000 fold

Cc1cc(SCc2sc(-c3ccc(C(F)(F)F)c(F)c3)nc2C)ccc1OCC(=O)O [GW0742]
effect on food consumption (in words) [1]: transient stimulatory effect on food intake from days 12–17 | effect on food consumption (in words) ([1]; listed as PPARδ agonist): small but statistically significant increase in feeding | BW day 28 ([2]; 30 mg/kg oral): 50.2 ± 1.2 grams | effect on FM (in words) [2]: slight decrease in FM | effect on LM (in words) [2]: LM was unaffected | increase in liver weight [2]: ~1 gram | BW day 0 ([2]; group dosed 30 mg/kg oral): 51.6 ± 1.1 grams | effect on BW (in words) [2]: neither compound induced a sustained decrease in BW | Fat mass day 28 ([2]; 30 mg/kg oral): 18.4 ± 0.7 grams | Lean mass day 28 ([2]; 30 mg/kg oral): 29.7 ± 0.7 grams | Liver weight ([2]; 30 mg/kg oral): 3.2 ± 0.1 grams | Cholesterol ([3]; 30 mg/kg oral): 171.9 ± 2.9 mg/dL | Glucose ([3]; 30 mg/kg oral): 253.3 ± 8.9 mg/dL | HDL-C ([3]; 30 mg/kg oral): 118.4 ± 1.6 mg/dL | Insulin ([3]; 30 mg/kg oral): 2.2 ± 1.2 ng/mL | NEFA ([3]; 30 mg/kg oral): 0.9 ± 0.02 mEq/L | Triglyceride ([3]; 30 mg/kg oral): 174.9 ± 10.3 mg/dL | bHBA ([3]; 30 mg/kg oral): 3.8 ± 0.3 mg/dL | effect on serum chemistry (in words) [3]: significantly reduced circulating insulin (INS) levels | EC50 (murine PPARγ): 10000 nM | mPPARγ %Max (murine PPARγ): 67%

CCCCCCCN(CCc1ccc(SC(C)(C)C(=O)O)cc1)C(=O)Nc1ccc(F)cc1F [GW9578]
effect on food consumption (in words) [1]: significant suppression of food intake | effect on food consumption (in words) ([1]; listed as PPARα agonist): reduced food consumption | BW day 28 ([2]; 1 mg/kg oral): 51.3 ± 1.6 grams | effect on FM (in words) [2]: slight decrease in FM | effect on LM (in words) [2]: LM was unaffected | increase in liver weight [2]: ~1 gram | BW day 0 ([2]; group dosed 1 mg/kg oral): 52.1 ± 1.1 grams | effect on BW (in words) [2]: neither compound induced a sustained decrease in BW | Fat mass day 28 ([2]; 1 mg/kg oral): 18.4 ± 0.9 grams | Lean mass day 28 ([2]; 1 mg/kg oral): 30.9 ± 0.8 grams | Liver weight ([2]; 1 mg/kg oral): 2.6 ± 0.1 grams | Cholesterol ([3]; 1 mg/kg oral): 117.1 ± 4.1 mg/dL | Glucose ([3]; 1 mg/kg oral): 248.0 ± 16.6 mg/dL | HDL-C ([3]; 1 mg/kg oral): 86.6 ± 2.7 mg/dL | Insulin ([3]; 1 mg/kg oral): 3.1 ± 1.6 ng/mL | NEFA ([3]; 1 mg/kg oral): 0.9 ± 0.04 mEq/L | Triglyceride ([3]; 1 mg/kg oral): 168.3 ± 15.4 mg/dL | bHBA ([3]; 1 mg/kg oral): 3.2 ± 1.1 mg/dL | effect on serum chemistry (in words) [3]: significantly reduced circulating insulin (INS) levels | EC50 (murine PPARγ): 2820 nM | mPPARγ %Max (murine PPARγ): 96%
